Values quoted from earlier work, collected in patent US20240238224A1, “COMPOSITION FOR LOCAL ANAESTHESIA AND USES THEREOF” (priority 2023, published 2024).

System: test teeth

CCCCNc1ccc(C(=O)OCCN(C)C)cc1 [tetracaine, 2-(dimethylamino)ethyl 4-(butylamino)benzoate]
effectiveness for inducing pulpal anesthesia, 4% versus 3% tetracaine (non-injected formulation with vasoconstrictor, reported in U.S. Pat. No. 8,580,282 B2): 4% tetracaine is less effective than 3%

CCCCN1CCCCC1C(=O)Nc1c(C)cccc1C (centres unmarked) [bupivacaine, 1-butyl-N-(2,6-dimethylphenyl)piperidine-2-carboxamide]
effectiveness compared with tetracaine (reported in U.S. Pat. No. 8,580,282 B2, cols. 7, 13, 14): not as effective as tetracaine
